Laboratory results reported in patent US20260062387A1, “SALT-INDUCIBLE KINASE INHIBITOR COMPOUND AND PHARMACEUTICAL COMPOSITION INCLUDING THE SAME” (MITSUBISHI TANABE PHARMA CORPORATION, priority 2023, published 2026).
pIC50: −log10 of the molar value.

Experiments:
Type in all cases: biochemical
GST-tagged SIK1 = GST-tagged SIK1 (Homo sapiens (Human), UniProt P57059); test: SIK1 inhibition test (ADP-Glo Max Assay); conditions: enzyme 20 nM, AMARA Peptide 200 μM, ATP 1 mM, 2 hours room temperature
Procedure: (§1) The compounds described in Examples above were used in the SIK1, SIK2, and SIK3 inhibition test.
(§2) The inhibitory activity of the compound for SIK1, SIK2, and SIK3 enzymes was assayed by measuring the amount of ADP, an enzyme reaction product, with ADP-Glo™ Max Assay (Promega). Enzymes, specifically, GST-tagged SIK1 (Carna Biosciences, Inc.), GST-tagged SIK2 (Carna Biosciences, Inc.), and GST-tagged SIK3 (SignalChem) were prepared in a reaction buffer (15 mM tris-hydrochloric acid buffer (pH 7.5), 0.001% Triton X-100, 0.01% BSA) so that the final concentration would be 20 nM, 3 nM, and 100 nM. Enzyme solutions were thus formed. In a reaction buffer, AMARA Peptide (SignalChem) as a substrate with a final concentration of 200 μM (SIK1, SIK2) or 100 μM (SIK3), ATP (Promega) with a final concentration of 1 mM, and magnesium chloride with a final concentration of 5 mM were prepared. Substrate solutions were thus formed. The enzyme solution, the substrate solution, and a DMSO solution of a concentration of the test compound were mixed together and reacted at room temperature for 2 hours. After the reaction, ADP-Glo™ Reagent (Promega) was added, and the reaction was performed at room temperature for 30 minutes. Subsequently, ADP-Glo™ Max Detection Reagent (Promega) was added, and the reaction was performed at room temperature for 30 minutes. The emission by the luciferase reaction was measured with PHERAstar FSX (BMG LABTECH).
(§3) The inhibitory ratio (%) was calculated by: % Inhibition={1−(intensity of sample−intensity of blank (no enzyme solution added))/(intensity of control (DMSO alone)−intensity of blank)}×100. The inhibitory concentration IC50 was calculated based on 16 data values obtained in the concentration response test.

GST-tagged SIK2 = GST-tagged SIK2 (Homo sapiens (Human), UniProt Q9H0K1); test: SIK2 inhibition test (ADP-Glo Max Assay); conditions: enzyme 3 nM, AMARA Peptide 200 μM, ATP 1 mM, 2 hours room temperature
Procedure: as §1, §2, §3

GST-tagged SIK3 = GST-tagged SIK3 (Homo sapiens (Human), UniProt Q9Y2K2); test: SIK3 inhibition test (ADP-Glo Max Assay); conditions: enzyme 100 nM, AMARA Peptide 100 μM, ATP 1 mM, 2 hours room temperature
Procedure: as §1, §2, §3

GST-tagged SIK2, sequence (Q9H0K1 whole entry): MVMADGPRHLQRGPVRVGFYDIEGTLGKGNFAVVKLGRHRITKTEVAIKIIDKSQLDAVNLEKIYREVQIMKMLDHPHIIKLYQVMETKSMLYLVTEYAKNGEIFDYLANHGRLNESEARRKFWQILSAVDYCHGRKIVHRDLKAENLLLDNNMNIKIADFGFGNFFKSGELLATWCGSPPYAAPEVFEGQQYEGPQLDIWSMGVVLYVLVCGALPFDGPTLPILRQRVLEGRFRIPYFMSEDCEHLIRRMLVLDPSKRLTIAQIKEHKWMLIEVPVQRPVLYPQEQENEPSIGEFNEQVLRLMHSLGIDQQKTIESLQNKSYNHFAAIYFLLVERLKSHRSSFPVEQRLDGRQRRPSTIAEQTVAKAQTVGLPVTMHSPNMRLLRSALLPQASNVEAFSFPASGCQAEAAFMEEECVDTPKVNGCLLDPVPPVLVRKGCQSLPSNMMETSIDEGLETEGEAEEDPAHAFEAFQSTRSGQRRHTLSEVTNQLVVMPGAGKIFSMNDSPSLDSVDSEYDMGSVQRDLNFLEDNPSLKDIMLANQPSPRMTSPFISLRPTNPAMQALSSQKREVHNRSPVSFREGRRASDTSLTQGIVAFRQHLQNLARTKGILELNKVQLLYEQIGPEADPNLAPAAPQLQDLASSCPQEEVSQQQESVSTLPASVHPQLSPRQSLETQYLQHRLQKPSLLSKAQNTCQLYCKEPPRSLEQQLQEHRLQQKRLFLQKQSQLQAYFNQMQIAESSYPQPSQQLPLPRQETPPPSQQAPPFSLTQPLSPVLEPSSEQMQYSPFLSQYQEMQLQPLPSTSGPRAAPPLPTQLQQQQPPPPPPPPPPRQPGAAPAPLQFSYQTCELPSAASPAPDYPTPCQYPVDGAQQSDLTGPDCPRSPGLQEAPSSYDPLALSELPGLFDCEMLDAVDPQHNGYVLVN
GST-tagged SIK3, sequence (Q9Y2K2 whole entry): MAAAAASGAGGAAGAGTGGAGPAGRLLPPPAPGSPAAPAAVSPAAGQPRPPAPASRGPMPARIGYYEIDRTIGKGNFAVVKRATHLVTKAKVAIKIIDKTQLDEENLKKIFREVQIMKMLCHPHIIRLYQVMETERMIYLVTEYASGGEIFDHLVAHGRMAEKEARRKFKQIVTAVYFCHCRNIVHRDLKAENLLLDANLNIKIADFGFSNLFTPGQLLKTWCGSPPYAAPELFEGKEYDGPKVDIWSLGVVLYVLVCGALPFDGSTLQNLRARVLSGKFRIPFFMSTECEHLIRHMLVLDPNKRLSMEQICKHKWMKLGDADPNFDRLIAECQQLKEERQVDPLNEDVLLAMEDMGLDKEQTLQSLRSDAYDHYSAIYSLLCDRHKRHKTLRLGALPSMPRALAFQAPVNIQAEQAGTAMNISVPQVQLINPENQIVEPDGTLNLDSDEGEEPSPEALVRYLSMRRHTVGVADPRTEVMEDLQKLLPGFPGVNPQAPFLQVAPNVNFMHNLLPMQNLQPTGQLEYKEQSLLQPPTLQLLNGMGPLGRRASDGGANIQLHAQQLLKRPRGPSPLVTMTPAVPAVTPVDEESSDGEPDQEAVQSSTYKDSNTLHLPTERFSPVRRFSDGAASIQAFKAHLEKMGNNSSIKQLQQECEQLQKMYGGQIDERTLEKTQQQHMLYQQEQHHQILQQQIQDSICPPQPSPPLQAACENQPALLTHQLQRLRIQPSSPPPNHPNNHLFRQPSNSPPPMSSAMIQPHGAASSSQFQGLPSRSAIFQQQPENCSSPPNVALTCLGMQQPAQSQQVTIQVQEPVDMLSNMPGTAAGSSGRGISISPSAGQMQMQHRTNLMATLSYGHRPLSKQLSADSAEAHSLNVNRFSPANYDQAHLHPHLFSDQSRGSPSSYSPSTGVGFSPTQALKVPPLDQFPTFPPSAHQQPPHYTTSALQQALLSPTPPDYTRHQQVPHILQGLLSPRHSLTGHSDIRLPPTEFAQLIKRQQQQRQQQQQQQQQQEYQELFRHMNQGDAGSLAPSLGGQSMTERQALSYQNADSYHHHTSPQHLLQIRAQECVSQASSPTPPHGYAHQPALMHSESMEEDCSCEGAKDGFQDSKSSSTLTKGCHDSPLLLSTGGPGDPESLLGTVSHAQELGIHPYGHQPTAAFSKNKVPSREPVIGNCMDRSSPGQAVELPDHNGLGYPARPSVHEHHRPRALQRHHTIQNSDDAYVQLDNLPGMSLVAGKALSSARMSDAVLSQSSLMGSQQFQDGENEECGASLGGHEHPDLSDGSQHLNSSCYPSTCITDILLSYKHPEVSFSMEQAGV
GST-tagged SIK1, sequence (P57059 whole entry): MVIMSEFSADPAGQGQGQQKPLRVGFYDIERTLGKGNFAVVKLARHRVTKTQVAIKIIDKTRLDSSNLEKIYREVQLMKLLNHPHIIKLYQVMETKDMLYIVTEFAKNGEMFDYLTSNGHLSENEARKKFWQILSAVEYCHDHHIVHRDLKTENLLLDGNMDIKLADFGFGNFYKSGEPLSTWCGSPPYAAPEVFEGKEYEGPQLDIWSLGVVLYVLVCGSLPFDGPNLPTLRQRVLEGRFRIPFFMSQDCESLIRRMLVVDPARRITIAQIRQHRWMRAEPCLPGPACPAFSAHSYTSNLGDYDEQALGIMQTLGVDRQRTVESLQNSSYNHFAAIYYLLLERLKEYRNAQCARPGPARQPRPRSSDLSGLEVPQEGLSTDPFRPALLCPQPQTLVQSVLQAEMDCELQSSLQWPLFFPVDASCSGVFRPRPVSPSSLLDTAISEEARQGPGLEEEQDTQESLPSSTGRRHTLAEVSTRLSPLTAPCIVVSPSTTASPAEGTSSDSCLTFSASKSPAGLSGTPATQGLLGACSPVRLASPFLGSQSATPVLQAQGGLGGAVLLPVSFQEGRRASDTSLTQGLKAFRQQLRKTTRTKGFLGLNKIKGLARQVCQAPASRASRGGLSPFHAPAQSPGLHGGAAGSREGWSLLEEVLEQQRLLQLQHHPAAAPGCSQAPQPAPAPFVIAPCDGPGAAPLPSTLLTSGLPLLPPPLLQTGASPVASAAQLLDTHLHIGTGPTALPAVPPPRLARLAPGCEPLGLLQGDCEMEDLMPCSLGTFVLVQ

Compound | pIC50 (GST-tagged SIK1) | pIC50 (GST-tagged SIK2) | pIC50 (GST-tagged SIK3)
COc1cc(-c2c3c(C#N)cc(-c4cnn(C)c4)cc3nn2C)cc(OC(F)F)c1C(=O)NC[C@@H]1CC1(F)F (single isomer, unassigned) [Example 46] | 7.83 | 8.28 | 8.14
COc1cc(-c2c3c(C#N)cc(-c4cnn(CCN5CCOCC5)c4)cc3nn2C)cc(OC(F)F)c1C(=O)NC[C@@H]1CC1(F)F (single isomer, unassigned) [Example 85] | 8.00 | 8.15 | 8.07
COc1cc(-c2c3c(C#N)cc(-c4cnn(CC(C)(C)O)c4)cc3nn2C)cc(OC(F)F)c1C(=O)NC[C@@H]1CC1(F)F (single isomer, unassigned) [Example 86] | 7.86 | 7.88 | 7.71
COc1cc(-c2c3c(C#N)cc(-c4cnn(C[C@H](C)O)c4)cc3nn2C)cc(OC(F)F)c1C(=O)NC[C@@H]1CC1(F)F (single isomer, unassigned) [Example 95, 4-[4-cyano-6-[1-[(2S)-2-hydroxypropyl]pyrazol-4-yl]-2-methylindazol-3-yl]-N-[[(1R*)-2,2-difluorocyclopropyl]methyl]-2-(difluoromethoxy)-6-methoxybenzamide] | 7.80 | 7.88 | 8.24
CCOc1cc(-c2cnn(C)c2)cc2nn(C)c(-c3cc(OC)c4c(c3)[C@@H](C)CNC4=O)c12 (single isomer, unassigned) [Example 163] | 8.29 | 8.85 | 7.94
COc1cc(-c2c3c(OC(F)F)cc(-c4cnn(C)c4)cc3nn2C)cc2c1C(=O)NC[C@@H]2C (single isomer, unassigned) [Example 164] | 8.15 | 8.70 | 7.71
COc1cc(-c2cnn(C)c2)cc2nn(C)c(-c3cc(OC(F)F)c4c(c3)[C@@H](C)CNC4=O)c12 (single isomer, unassigned) [Example 165] | 8.28 | 8.82 | 8.17
COc1cc(-c2cnn(C)c2)cc2nn(C)c(-c3cc(OC(F)F)c4c(c3)[C@@H](C)CNC4=O)c12 (single isomer, unassigned) [Example 166] | 7.92 | 8.51 | 8.02
COc1cc(-c2cnn(C[C@H](C)O)c2)cc2nn(C)c(-c3cc(OC(F)F)c4c(c3)[C@@H](C)CNC4=O)c12 (single isomer, unassigned) [Example 175] | 8.12 | 8.54 | 8.14
COc1cc(-c2cnn(C[C@H](C)O)c2)cc2nn(C)c(-c3cc(OC(F)F)c4c(c3)[C@@H](C)CNC4=O)c12 (single isomer, unassigned) [Example 176] | 7.96 | 8.23 | 7.92
COCCn1cc(-c2cc(OC)c3c(-c4cc(OC(F)F)c5c(c4)[C@@H](C)CNC5=O)n(C)nc3c2)cn1 (single isomer, unassigned) [Example 177] | 8.27 | 8.51 | 8.00
COCCn1cc(-c2cc(OC)c3c(-c4cc(OC(F)F)c5c(c4)[C@@H](C)CNC5=O)n(C)nc3c2)cn1 (single isomer, unassigned) [Example 178] | 8.00 | 8.33 | 7.81
C[C@H]1CNC(=O)c2c(OC(F)F)cc(-c3c4c(C#N)cc(-c5cnn(C)c5)cc4nn3C)cc21 (single isomer, unassigned) [Example 181] | 7.71 | 8.21 | 8.46
C[C@H]1CNC(=O)c2c(OC(F)F)cc(-c3c4c(C#N)cc(-c5cnn(C)c5)cc4nn3C)cc21 (single isomer, unassigned) [Example 182] | 8.19 | 8.60 | 8.70
COc1cc(-c2c3c(C#N)cc(-c4cnn(CCN5CC(F)(F)C5)c4)cc3nn2C)cc(OC(F)F)c1C(=O)NC[C@@H]1CC1(F)F (stereo in doubt) [Example 108, 4-[4-cyano-6-[1-[2-(3,3-difluoroazetidin-1-yl)ethyl]pyrazol-4-yl]-2-methylindazol-3-yl]-2-(difluoromethoxy)-6-methoxy-N-[[rel-(1R)-2,2-difluorocyclopropyl]methyl]benzamide] | 7.77 | 8.19 | 8.62
COc1cc(-n2cnc3cc(-c4cnn(C)c4)ccc32)cc(OC)c1C(=O)NCC(F)F [Comparative Example 2, reference compound] | 6.00 | 7.06 | 7.40
COc1cc(-c2cnc3cc(-c4cnn(C)c4)ccn23)cc2c1C(=O)N(C1CC1)CC2 [Comparative Example 3, 2-cyclopropyl-8-methoxy-6-[7-(1-methylpyrazol-4-yl)imidazo[1,2-a]pyridin-3-yl]-3,4-dihydroisoquinolin-1-one, reference compound] | 6.40 | 7.64 | 8.19

Results, then the compound that gave them:

pIC50 (GST-tagged SIK1) | pIC50 (GST-tagged SIK2) | pIC50 (GST-tagged SIK3) | Compound
8.13 | 8.35 | 8.28 | COc1cc(-c2c3c(C#N)cc(-c4cnn(C)c4)cc3nn2C)cc2c1C(=O)NC[C@@H]2C (single isomer, unassigned) [Example 88]
8.00 | 8.47 | 8.09 | CCn1cc(-c2cc(C#N)c3c(-c4cc(OC)c5c(c4)[C@@H](C)CNC5=O)n(C)nc3c2)cn1 (single isomer, unassigned) [Example 105]
8.08 | 8.40 | 8.10 | COc1cc(-c2c3c(C#N)cc(-c4cnn(CC(F)F)c4)cc3nn2C)cc2c1C(=O)NC[C@@H]2C (single isomer, unassigned) [Example 107]
8.14 | 8.82 | 8.29 | COc1cc(-c2c3c(C#N)cc(-c4cnn(CC(F)(F)F)c4)cc3nn2C)cc2c1C(=O)NC[C@@H]2C (single isomer, unassigned) [Example 126]
8.16 | 8.89 | 8.12 | COCCn1cc(-c2cc(C#N)c3c(-c4cc(OC)c5c(c4)[C@@H](C)CNC5=O)n(C)nc3c2)cn1 (single isomer, unassigned) [Example 127]
8.09 | 9.00 | 8.18 | COc1cc(-c2c3c(C#N)cc(-c4cnn(C(F)F)c4)cc3nn2C)cc2c1C(=O)NC[C@@H]2C (single isomer, unassigned) [Example 128]
8.07 | 8.77 | 8.39 | COc1cc(-c2c3c(C#N)cc(-c4cnn(C(C)C)c4)cc3nn2C)cc2c1C(=O)NC[C@@H]2C (single isomer, unassigned) [Example 167]
8.17 | 8.85 | 8.57 | CCCCn1cc(-c2cc(C#N)c3c(-c4cc(OC)c5c(c4)[C@@H](C)CNC5=O)n(C)nc3c2)cn1 (single isomer, unassigned) [Example 168]
8.09 | 8.72 | 8.47 | COc1cc(-c2c3c(C#N)cc(-c4cnn(CC(C)C)c4)cc3nn2C)cc2c1C(=O)NC[C@@H]2C (single isomer, unassigned) [Example 169]
8.07 | 8.77 | 8.37 | COc1cc(-c2c3c(C#N)cc(-c4cnn(CC5CC5)c4)cc3nn2C)cc2c1C(=O)NC[C@@H]2C (single isomer, unassigned) [Example 170]
8.04 | 8.64 | 8.33 | COc1cc(-c2c3c(C#N)cc(-c4cnn(CCC(C)C)c4)cc3nn2C)cc2c1C(=O)NC[C@@H]2C (single isomer, unassigned) [Example 171]
7.71 | 8.11 | 8.15 | COCCn1cc(-c2cc(C#N)c3c(-c4cc(OC(F)F)c5c(c4)[C@@H](C)CNC5=O)n(C)nc3c2)cn1 (single isomer, unassigned) [Example 172]
8.12 | 8.68 | 8.46 | COCCn1cc(-c2cc(C#N)c3c(-c4cc(OC(F)F)c5c(c4)[C@@H](C)CNC5=O)n(C)nc3c2)cn1 (single isomer, unassigned) [Example 173]
8.07 | 8.64 | 8.59 | CCn1cc(-c2cc(C#N)c3c(-c4cc(OC(F)F)c5c(c4)[C@@H](C)CNC5=O)n(C)nc3c2)cn1 (single isomer, unassigned) [Example 174]
8.24 | 8.70 | 8.21 | CCn1cc(-c2cc(OC)c3c(-c4cc(OC(F)F)c5c(c4)[C@@H](C)CNC5=O)n(C)nc3c2)cn1 (single isomer, unassigned) [Example 179]
7.88 | 8.29 | 7.91 | CCn1cc(-c2cc(OC)c3c(-c4cc(OC(F)F)c5c(c4)[C@@H](C)CNC5=O)n(C)nc3c2)cn1 (single isomer, unassigned) [Example 180]
